Publication PMC5131310, “Discovery of piperonal-converting oxidase involved in the metabolism of a botanical aromatic aldehyde” (Scientific Reports, 2016)

Target: T1, piperonal-converting enzyme (PceSML), FAD site on PceM (Burkholderia sp. CT39-3, UniProt A0A1L7N251)
T1 construct: same recombinant complex as P1 (N-terminal His tag on PceS, host Burkholderia sp. CT39-3); with Piperonal-converting enzyme large subunit (PceL); Piperonal-converting enzyme small subunit (PceS)
T1 sequence (A0A1L7N251 1-334): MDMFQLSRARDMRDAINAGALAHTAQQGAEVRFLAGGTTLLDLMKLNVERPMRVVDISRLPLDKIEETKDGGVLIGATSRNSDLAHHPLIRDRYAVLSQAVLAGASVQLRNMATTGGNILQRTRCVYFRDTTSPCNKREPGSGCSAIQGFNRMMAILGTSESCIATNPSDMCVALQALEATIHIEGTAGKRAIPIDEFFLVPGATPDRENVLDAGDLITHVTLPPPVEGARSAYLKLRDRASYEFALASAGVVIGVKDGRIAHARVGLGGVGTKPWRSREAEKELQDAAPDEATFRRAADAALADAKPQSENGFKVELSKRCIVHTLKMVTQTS
T1 sequence (A0A1L7N257 1-740 partner): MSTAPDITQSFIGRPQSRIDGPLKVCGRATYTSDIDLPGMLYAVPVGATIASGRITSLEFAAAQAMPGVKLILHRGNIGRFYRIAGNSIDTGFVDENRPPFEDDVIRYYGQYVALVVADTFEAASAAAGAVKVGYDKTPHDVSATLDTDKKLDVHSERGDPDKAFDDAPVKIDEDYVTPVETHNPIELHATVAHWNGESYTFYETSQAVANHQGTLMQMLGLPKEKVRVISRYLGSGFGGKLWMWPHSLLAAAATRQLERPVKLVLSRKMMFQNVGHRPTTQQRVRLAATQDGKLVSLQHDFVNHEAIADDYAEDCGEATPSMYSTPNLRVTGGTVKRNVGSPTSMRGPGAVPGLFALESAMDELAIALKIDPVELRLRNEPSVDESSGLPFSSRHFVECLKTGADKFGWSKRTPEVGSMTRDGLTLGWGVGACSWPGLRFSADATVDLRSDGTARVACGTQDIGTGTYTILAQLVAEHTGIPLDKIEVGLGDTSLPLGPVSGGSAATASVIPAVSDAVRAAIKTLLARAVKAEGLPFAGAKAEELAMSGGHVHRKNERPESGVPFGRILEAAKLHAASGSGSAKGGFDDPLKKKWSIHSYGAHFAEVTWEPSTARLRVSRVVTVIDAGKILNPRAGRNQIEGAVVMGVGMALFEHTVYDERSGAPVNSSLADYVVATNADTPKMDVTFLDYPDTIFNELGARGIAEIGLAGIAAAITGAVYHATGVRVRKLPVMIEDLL
T1 sequence (A0A1L7N258 1-185 partner): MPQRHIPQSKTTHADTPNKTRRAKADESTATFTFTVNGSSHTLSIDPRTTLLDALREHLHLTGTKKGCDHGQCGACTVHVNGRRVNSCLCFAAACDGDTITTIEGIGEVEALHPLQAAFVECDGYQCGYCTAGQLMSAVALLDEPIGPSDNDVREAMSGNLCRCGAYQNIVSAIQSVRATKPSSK
Assay: HPLC of flavin released from purified enzyme by HClO4
Assay type: binding
Conditions: as-purified cofactor

Cc1cc2nc3c(=O)[nH]c(=O)nc-3n(C[C@H](O)[C@H](O)[C@H](O)COP(=O)(O)OP(=O)(O)OC[C@H]3O[C@@H](n4cnc5c(N)ncnc54)[C@H](O)[C@@H]3O)c2cc1C [FAD]
HPLC of flavin released from purified enzyme by HClO4: FAD was identified as the flavin cofactor (Fig. 3A)
